From patent US20210038607A1, “OXADIAZOLYLTHIOPHENE DERIVATIVES USEFUL AS HISTONE DEACETYLASE INHIBITORS” (Karus Therapeutics Limited, priority 2018, published 2021)

How the values were obtained:
[1] = biological target: T1, Human HDAC2 (Homo sapiens, UniProt Q92769); assay: HDAC2 biochemical assay, AMC-labeled peptide substrate; settings: read-out: HDAC Isoform IC50 (nM) 2
T1 construct: full length with C-terminal GST-tag; GST (C); host or cells: baculovirus expression system
Protocol: (§1) Activity against all zinc-dependent HDACs 1 to 11 was assessed by using an acetylated AMC-labeled peptide substrate. The substrate RHKK(Ac)AMC was used for HDAC1, HDAC2, HDAC3, HDAC6 and HDAC10; the substrate used for HDAC8 was RHK(Ac)K(Ac)AMC. Activity against the class IIa HDACs (HDAC4, 5, 7, 9) and HDAC11 was determined using a class IIa-specific substrate, BOC-Lys(trifluoroacetyl)-AMC (“Trifluoroacetyl Lysine”; see Lahm et al, 2007, PNAS, 104, 17335-17340). All assays were based on the AMC-labeled substrate and developer combination.
(§2) The protocol involved a two-step reaction: first, the substrate with the acetylated lysine side chain is incubated with a sample containing HDAC activity, to produce the deacetylated products, which are then digested in the second step by the addition of developer to produce the fluorescent signal proportional to the amount of deacetylated substrates.
Human HDAC2 (GenBank Accession No. NM_001527), full length with C-terminal GST-tag, MW=82.9 kDa, expressed inbaculovirus expression system.
(§3) Assay Buffer: 50 mM Tris-HCl, pH8.0, 137 mM NaCl, 2.7 mM KCl, 1 mM MgC2. Before use, 1 mg/mL BSA and DMSO are added.
HDAC2: 0.07 ng/ul HDAC2 and 50 μM HDAC substrate are in the reaction buffer with 1% DMSO final. Incubate for 1 hour at 30° C.
(§4) Stage 1: Deacetylation of substrate by incubation of HDAC enzymes with compounds
(§5) Stage 2: Development by addition of Developer to digest the deacetylated substrate, and generate the fluorescent colour; Detection: 360/460 Ex/Em

[2] = biological target: T2, Human HDAC7 (Homo sapiens, UniProt Q8WUI4); assay: HDAC7 biochemical assay, class IIa-specific substrate; settings: read-out: HDAC Isoform IC50 (nM) 7
T2 construct: (a.a. 518-end) with N-terminal GST tag; GST (N); host or cells: baculovirus expression system
T2 sequence (Q8WUI4 518-952 limits assumed): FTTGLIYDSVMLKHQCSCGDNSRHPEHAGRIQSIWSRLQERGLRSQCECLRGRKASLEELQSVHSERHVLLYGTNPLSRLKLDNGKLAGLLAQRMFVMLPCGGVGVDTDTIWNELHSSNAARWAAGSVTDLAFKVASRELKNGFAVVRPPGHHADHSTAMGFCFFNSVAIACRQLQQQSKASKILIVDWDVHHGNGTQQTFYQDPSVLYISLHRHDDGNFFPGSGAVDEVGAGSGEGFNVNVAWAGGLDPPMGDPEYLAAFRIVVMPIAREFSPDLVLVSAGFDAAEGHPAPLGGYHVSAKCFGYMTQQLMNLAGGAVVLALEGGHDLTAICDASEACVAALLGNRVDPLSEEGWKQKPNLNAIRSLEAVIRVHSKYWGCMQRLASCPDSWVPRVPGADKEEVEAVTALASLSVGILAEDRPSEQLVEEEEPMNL
How it was run: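 GST-tagged HDAC7 (a.a. 518-end, baculovirus-expressed) at 0.001 ng/ul with 50 μM Boc-Lys(trifluoroacetyl)-AMC substrate, 30 min at room temperature in pH 8.0 Tris buffer with BSA, 1% DMSO final. Developer then releases AMC; fluorescence read at 360/460 nm.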

[3] = biological target: T3, Human HDAC5 (Homo sapiens, UniProt Q9UQL6); assay: HDAC5 biochemical assay, class IIa-specific substrate; settings: read-out: HDAC Isoform IC50 (nM) 5
T3 construct: full length with C-terminal His tag, MW=51.1 kDa; His (C); host or cells: baculovirus expression system
How it was run: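 Full-length C-terminal His-tagged HDAC5 from baculovirus (0.05 ng/ul) incubated 30 min at room temperature with 50 μM Boc-Lys(trifluoroacetyl)-AMC and compound, Tris pH 8.0 buffer with BSA, 1% DMSO. Developer then releases AMC; fluorescence 360/460 nm.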

[4] = biological target: T4, Complex of human HDAC3 and human NCOR2 (Homo sapiens, UniProt O15379); assay: HDAC3 biochemical assay, AMC-labeled peptide substrate; settings: read-out: HDAC Isoform IC50 (nM) 3
T4 construct: full length with C-terminal His tag, MW=49.7 kDa; His (C); host or cells: baculovirus expression system (co-expressed)
Protocol: as §1, §2
Complex of human HDAC3 (GenBank Accession No. NM_003883), full length with C-terminal His tag, MW=49.7 kDa, and human NCOR2 (amino acid 395-489) (GenBank Accession No. NM_006312), N-terminal GST tag, MW=37.6 kDa, co-expressed in baculovirus expression system.
as §3
HDAC3: 0.1 ng/ul HDAC3 and 50 μM HDAC substrate are in the reaction buffer with 1% DMSO final. Incubate for 1 hour at 30° C.
as §4, §5

[5] = biological target: T5, Human HDAC11 (Homo sapiens, UniProt Q96DB2); assay: HDAC11 biochemical assay, class IIa-specific substrate; settings: read-out: HDAC Isoform IC50 (nM) 11
T5 construct: Human HDAC11 (full length); His (N); host or cells: baculovirus expression system
T5 sequence (Q96DB2 1-347): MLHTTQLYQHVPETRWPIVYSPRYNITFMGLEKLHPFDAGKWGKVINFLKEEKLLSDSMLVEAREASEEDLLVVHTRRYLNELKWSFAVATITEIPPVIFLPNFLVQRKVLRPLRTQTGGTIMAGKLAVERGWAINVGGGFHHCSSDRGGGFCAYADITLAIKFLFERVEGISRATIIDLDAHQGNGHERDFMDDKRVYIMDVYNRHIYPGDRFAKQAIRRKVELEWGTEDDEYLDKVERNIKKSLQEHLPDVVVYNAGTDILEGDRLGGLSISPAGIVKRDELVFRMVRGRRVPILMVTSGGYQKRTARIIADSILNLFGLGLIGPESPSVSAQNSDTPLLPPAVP
Protocol: as §1, §2
Human HDAC11 (full length) (GenBank Accession No. NM_024827) with N-terminal His tag, MW=42.9 kDa, expressed in baculovirus expression system.
as §3
HDAC11: 5 ng/ul HDAC11 and 50 μMHDAC substrate are in the reaction buffer with 1% DMSO final. Incubate for 30 minutes at 30° C.
as §4, §5

T4 sequence (O15379 whole entry, canonical isoform): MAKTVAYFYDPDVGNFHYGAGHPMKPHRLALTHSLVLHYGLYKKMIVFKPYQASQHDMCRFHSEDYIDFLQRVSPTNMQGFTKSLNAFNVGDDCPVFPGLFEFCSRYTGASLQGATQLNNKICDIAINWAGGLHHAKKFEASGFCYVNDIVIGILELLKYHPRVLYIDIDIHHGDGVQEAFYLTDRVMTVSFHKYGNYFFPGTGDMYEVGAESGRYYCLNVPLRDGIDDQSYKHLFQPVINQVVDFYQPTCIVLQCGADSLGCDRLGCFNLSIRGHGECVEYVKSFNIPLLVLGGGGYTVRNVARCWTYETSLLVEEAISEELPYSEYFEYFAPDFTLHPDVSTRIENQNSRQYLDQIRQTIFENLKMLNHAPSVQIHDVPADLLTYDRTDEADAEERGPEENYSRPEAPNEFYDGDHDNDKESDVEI
T4 sequence (Q9Y618 395-489 partner limits assumed): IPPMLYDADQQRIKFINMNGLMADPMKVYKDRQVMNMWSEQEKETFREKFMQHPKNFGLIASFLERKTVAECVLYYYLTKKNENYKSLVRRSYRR
T1 sequence (Q92769 whole entry, canonical isoform): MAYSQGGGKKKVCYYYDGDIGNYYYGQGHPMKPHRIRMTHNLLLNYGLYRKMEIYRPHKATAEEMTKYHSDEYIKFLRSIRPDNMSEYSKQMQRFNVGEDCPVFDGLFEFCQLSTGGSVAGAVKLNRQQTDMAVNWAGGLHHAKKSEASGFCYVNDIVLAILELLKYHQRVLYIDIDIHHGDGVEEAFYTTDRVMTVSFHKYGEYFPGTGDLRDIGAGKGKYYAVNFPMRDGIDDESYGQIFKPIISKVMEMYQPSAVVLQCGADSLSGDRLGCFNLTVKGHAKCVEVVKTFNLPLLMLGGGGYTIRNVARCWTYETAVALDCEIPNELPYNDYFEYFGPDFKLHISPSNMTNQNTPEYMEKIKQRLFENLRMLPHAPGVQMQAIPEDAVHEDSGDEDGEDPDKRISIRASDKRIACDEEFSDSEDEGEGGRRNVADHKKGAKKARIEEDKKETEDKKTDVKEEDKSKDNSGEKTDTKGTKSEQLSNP
T3 sequence (Q9UQL6 656-1122 limits assumed): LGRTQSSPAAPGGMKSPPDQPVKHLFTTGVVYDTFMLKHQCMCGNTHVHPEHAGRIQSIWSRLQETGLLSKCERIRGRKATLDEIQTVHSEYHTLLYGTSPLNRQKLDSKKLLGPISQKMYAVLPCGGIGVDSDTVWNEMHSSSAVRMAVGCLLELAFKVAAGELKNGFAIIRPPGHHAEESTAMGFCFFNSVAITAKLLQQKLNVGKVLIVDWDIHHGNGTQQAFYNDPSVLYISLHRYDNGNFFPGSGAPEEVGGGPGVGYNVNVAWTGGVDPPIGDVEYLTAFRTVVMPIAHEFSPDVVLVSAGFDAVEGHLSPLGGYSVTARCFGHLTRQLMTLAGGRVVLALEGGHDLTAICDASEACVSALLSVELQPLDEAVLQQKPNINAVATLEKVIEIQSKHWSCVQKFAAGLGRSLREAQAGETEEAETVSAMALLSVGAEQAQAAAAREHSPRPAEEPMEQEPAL

| SMILES | IC50 [1] | IC50 [2] | IC50 [3] | IC50 [4] | IC50 [5] |
| --- | --- | --- | --- | --- | --- |
| O=C(c1ccc(N(Cc2ccc(-c3noc(C(F)(F)F)n3)s2)c2cnccn2)nn1)N1CCC2(COC2)C1 [Example FJ, 6-{2-Oxa-6-azaspiro[3.4]octane-6-carbonyl}-N-(pyrazin-2-yl)-N-({5-[5-(trifluoromethyl)-1,2,4-oxadiazol-3-yl]thiophen-2-yl}methyl)pyridazin-3-amine] | > 10000 nM | ≤ 500 nM | ≤ 500 nM | ≤ 10000 nM | > 10000 nM |
| CN(C(=O)c1cnnc(N(Cc2ccc(-c3noc(C(F)(F)F)n3)s2)c2cnccn2)c1)S(C)(=O)=O [Example GE, N-Methanesulfonyl-N-methyl-6-[(pyrazin-2-yl)({5-[5-(trifluoromethyl)-1,2,4-oxadiazol-3-yl]thiophen-2-yl}methyl)amino]pyridazine-4-carboxamide] | > 10000 nM | ≤ 1000 nM | ≤ 1000 nM | > 10000 nM | > 10000 nM |
| O=C(c1cnnc(N(Cc2ccc(-c3noc(C(F)(F)F)n3)s2)c2cnccn2)c1)N1CCC12COC2 [Example GF, 5-{6-Oxa-1-azaspiro[3.3]heptane-1-carbonyl}-N-(pyrazin-2-yl)-N-({5-[5-(trifluoromethyl)-1,2,4-oxadiazol-3-yl]thiophen-2-yl}methyl)pyridazin-3-amine] | > 10000 nM | ≤ 10000 nM | ≤ 500 nM | > 10000 nM | > 10000 nM |
| Fc1ccnc(N(Cc2ccc(-c3noc(C(F)(F)F)n3)s2)c2cnccn2)c1 [Example AG, N-(4-Fluoropyridin-2-yl)-N-({5-[5-(trifluoromethyl)-1,2,4-oxadiazol-3-yl]thiophen-2-yl}methyl)pyrazin-2-amine] | > 10000 nM | ≤ 10000 nM | ≤ 10000 nM | > 10000 nM | > 10000 nM |
| O=C(O)c1ccc(N(Cc2sc(-c3noc(C(F)(F)F)n3)cc2F)c2cnccn2)nn1 [Example EZ, 6-[({3-Fluoro-5-[5-(trifluoromethyl)-1,2,4-oxadiazol-3-yl]thiophen-2-yl}methyl)(pyrazin-2-yl)amino]pyridazine-3-carboxylic acid] | > 10000 nM | ≤ 10000 nM | ≤ 10000 nM | > 10000 nM | > 10000 nM |
| CC1(c2cnnc(N(Cc3ccc(-c4noc(C(F)(F)F)n4)s3)c3cnccn3)c2)COC1 [Example GT, 5-(3-Methyloxetan-3-yl)-N-(pyrazin-2-yl)-N-({5-[5-(trifluoromethyl)-1,2,4-oxadiazol-3-yl]thiophen-2-yl}methyl)pyridazin-3-amine] | > 10000 nM | ≤ 10000 nM | ≤ 1000 nM | > 10000 nM | > 10000 nM |
| NC(=O)c1cnnc(N(Cc2ccc(-c3noc(C(F)(F)F)n3)s2)c2cnccn2)c1 [Example DX, 6-[(Pyrazin-2-yl)({5-[5-(trifluoromethyl)-1,2,4-oxadiazol-3-yl]thiophen-2-yl}methyl)amino]pyridazine-4-carboxamide] | > 10000 nM | ≤ 500 nM | ≤ 500 nM | ≤ 10000 nM | > 10000 nM |
| O=C(c1cnnc(N(Cc2ccc(-c3noc(C(F)(F)F)n3)s2)c2cnccn2)c1)N1CC(C(F)F)C1 [Example GK, 5-[3-(Difluoromethyl)azetidine-1-carbonyl]-N-(pyrazin-2-yl)-N-({5-[5-(trifluoromethyl)-1,2,4-oxadiazol-3-yl]thiophen-2-yl}methyl)pyridazin-3-amine] | > 10000 nM | ≤ 500 nM | ≤ 1000 nM | ≤ 10000 nM | > 10000 nM |
| FC(F)(F)c1nc(-c2ccc(CN(c3ccccn3)c3ccccn3)s2)no1 [Example U, N-(Pyridin-2-yl)-N-({5-[5-(trifluoromethyl)-1,2,4-oxadiazol-3-yl]thiophen-2-yl}methyl)pyridin-2-amine] | > 10000 nM | ≤ 10000 nM | ≤ 10000 nM | > 10000 nM | > 10000 nM |
| O=C(c1cnnc(N(Cc2ccc(-c3noc(C(F)(F)F)n3)s2)c2cnccn2)c1)N1CC2CCC(C1)O2 [Example GA, 5-{8-Oxa-3-azabicyclo[3.2.1]octane-3-carbonyl}-N-(pyrazin-2-yl)-N-({5-[5-(trifluoromethyl)-1,2,4-oxadiazol-3-yl]thiophen-2-yl}methyl)pyridazin-3-amine] | > 10000 nM | ≤ 10000 nM | ≤ 1000 nM | > 10000 nM | > 10000 nM |
| O=C(c1ccc(N(Cc2ccc(-c3noc(C(F)(F)F)n3)s2)c2cnccn2)nn1)N1CCCCC1 [Example FG, 6-(Piperidine-1-carbonyl)-N-(pyrazin-2-yl)-N-({5-[5-(trifluoromethyl)-1,2,4-oxadiazol-3-yl]thiophen-2-yl}methyl)pyridazin-3-amine] | > 10000 nM | ≤ 500 nM | ≤ 500 nM | > 10000 nM | > 10000 nM |
| COc1cncc(N(Cc2ccc(-c3noc(C(F)(F)F)n3)s2)c2cnccn2)n1 [Example BQ, 6-Methoxy-N-(pyrazin-2-yl)-N-({5-[5-(trifluoromethyl)-1,2,4-oxadiazol-3-yl]thiophen-2-yl}methyl)pyrazin-2-amine] | > 10000 nM | ≤ 10000 nM | ≤ 1000 nM | > 10000 nM | > 10000 nM |
| CNC(=O)c1ccc(N(Cc2ccc(-c3noc(C(F)(F)F)n3)s2)c2cnccn2)nn1 [Example FC, N-Methyl-6-[(pyrazin-2-yl)({5-[5-(trifluoromethyl)-1,2,4-oxadiazol-3-yl]thiophen-2-yl}methyl)amino]pyridazine-3-carboxamide] | > 10000 nM | ≤ 500 nM | ≤ 500 nM | ≤ 10000 nM | > 10000 nM |
| O=C(c1cncc(N(Cc2ccc(-c3noc(C(F)(F)F)n3)s2)c2cnccn2)c1)N1CCOCC1 [Example GR, N-[5-(Morpholine-4-carbonyl)pyridin-3-yl]-N-({5-[5-(trifluoromethyl)-1,2,4-oxadiazol-3-yl]thiophen-2-yl}methyl)pyrazin-2-amine] | > 10000 nM | ≤ 500 nM | ≤ 500 nM | > 10000 nM | > 10000 nM |
